From paper PMC11984586, “A novel spider toxin as a selective antagonist of the Kv1 subfamily of voltage-gated potassium channels through gating modulation” (The Journal of Biological Chemistry, 2025)
Bridge positions count the residues as written; N and C are the ends. Peptide text beside a SMILES is read from it.

Legend:
Type in all cases: cell-based
hKv1.1 = molecular target: T1, hKv1.1 (Homo sapiens, UniProt Q09470); assay: Whole-cell patch clamp, Kv1.1 ionic current in CHO-K1 cells
T1 construct: expressed in transfected cells; host or cells: CHO-K1
T1 sequence (Q09470 whole entry): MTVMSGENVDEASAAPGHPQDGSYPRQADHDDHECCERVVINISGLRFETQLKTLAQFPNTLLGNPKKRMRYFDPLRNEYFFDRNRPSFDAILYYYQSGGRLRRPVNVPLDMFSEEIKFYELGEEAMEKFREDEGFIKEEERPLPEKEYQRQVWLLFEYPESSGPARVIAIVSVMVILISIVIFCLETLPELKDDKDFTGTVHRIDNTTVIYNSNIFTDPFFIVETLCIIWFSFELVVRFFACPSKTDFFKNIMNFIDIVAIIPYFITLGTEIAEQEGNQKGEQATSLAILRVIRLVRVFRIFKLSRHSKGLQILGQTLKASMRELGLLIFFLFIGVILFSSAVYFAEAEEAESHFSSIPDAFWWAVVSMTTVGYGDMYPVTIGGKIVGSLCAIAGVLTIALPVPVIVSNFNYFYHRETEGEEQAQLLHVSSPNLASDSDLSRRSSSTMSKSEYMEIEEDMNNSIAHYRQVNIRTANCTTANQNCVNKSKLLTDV
Description: (§1) The cDNA of hKv1.1, hKv1.2, hKv1.3, rKv1.4, hKv1.5, mKv1.6, and hKv1.7 were subcloned into mammalian expression vectors pcDNA3.1 or pCMV-blank vectors, as well as other plasmids described previously ([35]). Channel mutants were generated by site-directed mutations. Briefly, the parental channel plasmid was amplified using a pair of oppositely directed primers harboring the designed mutation site, with KOD Fx (TOYOBO Co, Ltd). The resulting PCR mix was treated with FastDigest DpnI (Thermo Fisher Scientific) to remove the methylated template. Ten microliters of the digested product was then used to transform 100 μl E. coli DH5α competent cells. Transformants were randomly picked and sequenced to confirm the presence of the intended mutation.
(§2) CHO-K1 cells were selected for expressing Kv channels due to their lack of endogenous Kv channels, while HEK293 or ND7/23 cells were used for Nav and Cav channel expression. CHO-K1 cells were cultured in a Dulbecco's modified Eagle's medium/Ham's F-12 nutrient mixture (DMEM-F12) medium, and HEK293T and ND7/23 cells in DMEM medium, all supplemented with 10% fetal bovine serum and 1% penicillin-streptomycin (all from Gibco, Thermo Fisher Scientific, Inc) under standard conditions (37 °C, 5% CO2, and saturated humidity). These cell lines were purchased from Stem Cell Bank, Chinese Academy of Sciences. Channel plasmids were cotransfected with pEGFP-N1 (encoding GFP) into the respective cells using lipofectamine 2000, following the manufacturer's instructions (Invitrogen, Thermo Fisher Scientific, Inc.). Nav1.9-GFP plasmid was transfected into ND7/23 using the X-tremeGENE HP DNA Transfection Reagent (Roche). After 4 to 6 h transfection, cells were seeded onto poly-lysine–coated coverslips, and 24 to 36 h later, transfected cells were ready for patch-clamp analysis.
(§3) Patch clamp experiments were conducted using an electrophysiology platform comprising a MultiClamp 700B amplifier and an Axon Digidata 1550 AD/DA convertor (Axon Instruments). Data acquisition was performed with pClamp 10.5 software (Axon Instruments). All experiments were performed at room temperature.
(§4) For Kv current recordings, the bath solution contained (in mM) the following: 140 NaCl, 5 KCl, 1 MgCl2, 2 CaCl2, 10 glucose, and 10 Hepes (pH 7.3, adjusted with NaOH), and the pipette solution contained (in mM) the following: 140 KCl, 2.5 MgCl2, 11 EGTA, and 10 Hepes (pH 7.3, adjusted with KOH). Series resistance was maintained below 10 MΩ and compensated to 80%. […] Whole cell conductance (G) at each depolarizing voltage (V) was determined using the equation: G = I/(V−Vrev), where I is the current amplitude, and Vrev is the reversal potential. […] The steady-state fast inactivation of Kv1.3 was measured using a two-pulses protocol. […]

Kv1.3/M358T = molecular target: T2, Kv1.3/M358T (Homo sapiens, UniProt P22001, M358T); assay: Whole-cell patch clamp, Kv1.3 point mutant; conditions: +30 mV stimulus, mean ± SD, n = 5, read-out: IC50, Kv1.3/M358T current
T2 construct: expressed in transfected cells; host or cells: CHO-K1
T2 sequence (P22001 whole entry M358T): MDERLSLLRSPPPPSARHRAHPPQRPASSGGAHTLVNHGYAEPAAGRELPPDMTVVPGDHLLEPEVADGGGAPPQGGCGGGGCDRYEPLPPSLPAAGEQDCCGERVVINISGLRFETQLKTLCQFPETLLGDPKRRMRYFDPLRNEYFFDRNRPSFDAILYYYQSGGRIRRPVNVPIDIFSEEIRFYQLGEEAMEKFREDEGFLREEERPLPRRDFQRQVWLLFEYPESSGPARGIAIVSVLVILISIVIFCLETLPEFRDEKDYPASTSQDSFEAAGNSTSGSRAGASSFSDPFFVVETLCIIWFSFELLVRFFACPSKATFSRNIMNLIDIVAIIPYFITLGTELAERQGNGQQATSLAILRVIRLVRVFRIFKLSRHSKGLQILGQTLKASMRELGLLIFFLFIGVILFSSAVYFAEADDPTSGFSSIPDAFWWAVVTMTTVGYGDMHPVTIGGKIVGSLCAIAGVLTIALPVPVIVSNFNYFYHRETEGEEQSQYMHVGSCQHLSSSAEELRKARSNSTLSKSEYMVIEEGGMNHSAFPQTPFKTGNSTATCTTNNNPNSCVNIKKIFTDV
Source text: (§5) In contrast, differences at positions 347, 355, and 358 between Kv1.3 and Kv1.1 prompted further analysis. To explore whether these discrepancies influence peptide-mediated inhibition, we substituted these residues in Kv1.3 with their homologous counterparts in Kv1.1 and assessed the MrVIII's inhibitory efficacy on these single-point mutants. […] To further investigate this, we introduced double adjacent mutations around Q355 and M358 in Kv1.3 to explore potential synergistic effects on MrVIII's inhibitory activity.
as §1, with “Transformants were randomly picked and sequenced to confirm the presence of the intended mutation.” left out
(§6) CHO-K1 cells were selected for expressing Kv channels due to their lack of endogenous Kv channels, while HEK293 or ND7/23 cells were used for Nav and Cav channel expression. […] After 4 to 6 h transfection, cells were seeded onto poly-lysine–coated coverslips, and 24 to 36 h later, transfected cells were ready for patch-clamp analysis. […]
as §4, with “KOH).” for “KOH). Series resistance was maintained below 10 MΩ and compensated to 80%.”

Kv1.3/Q355E = molecular target: T3, Kv1.3/Q355E (Homo sapiens, UniProt P22001, Q355E); assay: Whole-cell patch clamp, Kv1.3 point mutant; conditions: +30 mV stimulus, mean ± SD, n = 5, read-out: IC50, Kv1.3/Q355E current
T3 construct: expressed in transfected cells; host or cells: CHO-K1
T3 sequence (P22001 whole entry Q355E): as the sequence (P22001 whole entry M358T) above, with Q355E, T358M counted along it
Source text: as §5
as §1, with “Transformants were randomly picked and sequenced to confirm the presence of the intended mutation.” left out
as §6
as §4, with “KOH).” for “KOH). Series resistance was maintained below 10 MΩ and compensated to 80%.”

Kv2.1 = assay: Selectivity patch clamp, non-Kv1 channels; conditions: 10 μM MrVIII; n = 3–5
Description: as §2, §3
(§7) For Kv current recordings, the bath solution contained (in mM) the following: 140 NaCl, 5 KCl, 1 MgCl2, 2 CaCl2, 10 glucose, and 10 Hepes (pH 7.3, adjusted with NaOH), and the pipette solution contained (in mM) the following: 140 KCl, 2.5 MgCl2, 11 EGTA, and 10 Hepes (pH 7.3, adjusted with KOH). Series resistance was maintained below 10 MΩ and compensated to 80%. Concentration–response curves were fitted by the Hill equation to determine the toxin's potency. Whole cell conductance (G) at each depolarizing voltage (V) was determined using the equation: G = I/(V−Vrev), where I is the current amplitude, and Vrev is the reversal potential. The reversal potential for K^+ current was estimated to be −85.6 mV using the Nernst equation. G-V curves were obtained by plotting the normalized conductance as a function of V and fitted by the Boltzmann equation: y = 1/(1+ exp((Va-V)/k)), which Va is the midpoint voltage, V is the test potential, and k is the slope factor. The steady-state fast inactivation of Kv1.3 was measured using a two-pulses protocol. The cell was held at −120 mV, and a train of conditional voltages (−120–40 mV in 10 mV increments, 60 s) were applied to induce channel inactivation, followed by a +60 mV test pulse (300 ms) to assess the proportion of noninactivated channels. The sweep interval was set to 30 s. Currents at the test pulse (I) were normalized to the maximum value (Imax) and plotted as a function of the conditional voltage (V). The curve was fitted by the Boltzmann equation: I/Imax = A+(1 − A)/(1+exp ((V−Vh)/K)), where Vh is the half-maximum inactivation voltage, A represents the minimum channel availability, and k is the slope factor.

Kv3.1-3.3 = assay: Selectivity patch clamp, non-Kv1 channels; conditions: 10 μM MrVIII; n = 3–5
Description: as §2, §3, §7

Kv4.1-4.3 = assay: Selectivity patch clamp, non-Kv1 channels; conditions: 10 μM MrVIII; n = 3–5
Description: as §2, §3, §7

Kv7.1 = assay: Selectivity patch clamp, non-Kv1 channels; conditions: 10 μM MrVIII; n = 3–5
Description: as §2, §3, §7

Kv7.3 = assay: Selectivity patch clamp, non-Kv1 channels; conditions: 10 μM MrVIII; n = 3–5
Description: as §2, §3, §7

## CC[C@H](C)[C@@H]1NC(=O)[C@H](Cc2ccc(O)cc2)NC(=O)[C@H](CCC(N)=O)NC(=O)[C@@H]2CCCN2C(=O)[C@@H]2CSSC[C@H](NC(=O)[C@H](C)NC(=O)[C@H](CO)NC(=O)[C@H](CCC(=O)O)NC(=O)[C@H](CCC(=O)O)NC(=O)[C@@H](N)[C@@H](C)O)C(=O)NCC(=O)NCC(=O)N[C@@H](Cc3ccccc3)C(=O)N[C@@H](CC(N)=O)C(=O)N[C@@H](C)C(=O)N[C@@H](CCCNC(=N)N)C(=O)N[C@H]3CSSC[C@H](NC1=O)C(=O)N[C@@H](CCCCN)C(=O)NCC(=O)N[C@@H](Cc1c[nH]c4ccccc14)C(=O)N[C@@H](CCCNC(=N)N)C(=O)N[C@@H]([C@@H](C)O)C(=O)N[C@@H](CCCCN)C(=O)N[C@@H](CCCNC(=N)N)C(=O)N[C@H](C(=O)N[C@@H](CC(C)C)C(=O)N[C@@H](CC(N)=O)C(=O)N1CCC[C@H]1C(=O)O)CSSC[C@H](NC(=O)[C@H](CCCCN)NC(=O)[C@H](Cc1c[nH]cn1)NC(=O)[C@H](CC(C)C)NC(=O)[C@@H]1CCCN1C3=O)C(=O)N2 [MrVIII] (H-TEESACGGFNARCPLHKCCPQYICKGWRTKRCLNP-OH; disulfide 6-19, 13-24, 18-32; N-terminus and C-terminus assumed)
hKv1.1; 10 μM (saturating), current at 495 ms, +30 mV, mean ± SD, SD
  inhi%(495 ms), Kv1.1 current: 23.9 ± 18.5%
hKv1.1; 10 μM MrVIII, I-V protocol
  inhibitory effect on Kv1.1 current at 495 ms once depolarizing voltage exceeded +40 mV: negligible
hKv1.1; CHO-K1, 10 μM MrVIII, I-V protocol, holding −80 mV, mean ± SD, n = 5–7, SD, read-out: inhibition of Kv1.1 current at 50 ms at +100 mV
  inhibition at 10 µM: 11.6 ± 7.9%
hKv1.1; current measured at 50 ms of a 500 ms depolarization to +30 mV, mean ± SD, n = 4–7, SD
  IC50: 50.9 ± 21.7 nM
Kv1.3/M358T
  IC50: 143 ± 33 nM
Kv1.3/Q355E
  IC50: 14.2 ± 7.2 nM
Kv2.1
  inhibition of Kv2.1 current: did not remarkably inhibit
Kv3.1-3.3
  inhibition of Kv3.1-3.3 currents: did not remarkably inhibit
Kv4.1-4.3
  inhibition of Kv4.1-4.3 currents: did not remarkably inhibit
Kv7.1
  inhibition of Kv7.1 current: did not remarkably inhibit
Kv7.3
  inhibition of Kv7.3 current: did not remarkably inhibit
